Measured values taken from PMC5973995 (Clinical Pharmacokinetics, 2017).

Assays:
[1] = given along with vortioxetine (Fig. 4)
[2] = cited from earlier work
[3] = cocktail with vortioxetine (Fig. 4)

| SMILES | effect of vortioxetine on the pharmacokinetics of the co-administered drug [1] | further results |
| --- | --- | --- |
| Cn1c(=O)c2c(ncn2C)n(C)c1=O [caffeine] | No effect |  |
| COc1ccc2c(c1)[C@]13CCCC[C@@H]1[C@H](C2)N(C)CC3 [dextromethorphan] |  | AUC(0–inf), 90% CI lower limit (with vs without vortioxetine) [2, 3]: 58%; C max, 90% CI lower limit (with vs without vortioxetine) [2, 3]: 68% |
| CC(=O)Oc1ccccc1C(=O)O [aspirin] | No effect |  |
| C#C[C@]1(O)CC[C@H]2[C@@H]3CCC4=CC(=O)CC[C@@H]4[C@H]3CC[C@@]21CC [levonorgestrel] | No effect |  |
| Cc1ncc2n1-c1ccc(Cl)cc1C(c1ccccc1F)=NC2 [midazolam] | No effect |  |
| C#C[C@]1(O)CC[C@H]2[C@@H]3CCc4cc(O)ccc4[C@H]3CC[C@@]21C [ethinyl estradiol] | No effect |  |
| CCO [ethanol] | No effect |  |
| O=C([O-])[O-].[Li+].[Li+] [lithium] | No effect |  |
| CN1C(=O)CN=C(c2ccccc2)c2cc(Cl)ccc21 [diazepam] | No effect |  |
| COc1ccc2[nH]c([S+]([O-])Cc3ncc(C)c(OC)c3C)nc2c1 (stereo not shown) [omeprazole] | no apparent effect | C max, upper limit of the 90% CI (with vs without vortioxetine) ([2]; multiple doses of vortioxetine (Fig. 4)): 130%; 90% CI for AUC(0–inf) (with vs without vortioxetine) ([2]; multiple doses of vortioxetine, within limits): 80–125% |
